Assay results reported in paper PMC11337105, “Identification of 2-(N-aryl-1,2,3-triazol-4-yl) quinoline derivatives as antitubercular agents endowed with InhA inhibitory activity” (Frontiers in Chemistry, 2024).
Converted amounts (≈) assume the structure as drawn.

What was measured:
M. bovis BCG = assay: microbe, parasite or virus in culture; type: cell-based; settings: Mycobacterium tuberculosis variant bovis BCG, read-out: MIC M. bovis BCG
M. tuberculosis H37Rv = assay: Antimycobacterial MIC / primary screening, MABA (microplate alamar blue assay); type: cell-based; settings: Mycobacterium tuberculosis
M. abscessus = assay: Antimycobacterial MIC / primary screening, MABA; type: cell-based; settings: Mycobacteroides abscessus, read-out: MIC M. abscessus
L929 cells = assay: Cytotoxicity, MTT protocol (ISO 10993-5:2009(E)); type: cell-based; settings: ratio to MIC against M. tuberculosis
Experimental: This evaluation adhered precisely to international standards (ISO 10993-5:2009(E)), employing L929 cells and the MTT protocol ([Bekier et al., 2021]). The determination of the half maximal inhibitory concentration (IC50) values was carried out for 12 out of the 13 compounds tested, considering the occurrence of derivative precipitation in the growth medium for L929 cells (Table 1). […] For two compounds (5g and 5i), the discriminatory index (IC50/MIC) was identified at the level of 20.

Compound	MIC (M. bovis BCG)	MIC (M. tuberculosis H37Rv)	MIC (M. abscessus)	melting point	IC50-L929/MIC Mtb (cytotoxicity / discriminatory index) (L929 cells)
Cc1c(-c2cc(C(=O)O)c3ccccc3n2)nnn1-c1ccc(Cl)cc1 [Compound 5f, 2-(1-(4-Chlorophenyl)-5-methyl-1H-1,2,3-triazol-4-yl)benzo [b]pyridine-4-carboxylic acid]	< 125 µg/mL	62.5 µg/mL (≈ 171 µM)	> 125 µg/mL	246 to 248 °C	–
Cc1c(-c2cc(C(=O)O)c3cc(Cl)ccc3n2)nnn1-c1cccc(Br)c1 [Compound 5L, 2-(1-(3-Bromophenyl)-5-methyl-1H-1,2,3-triazol-4-yl)-6-chlorobenzo [b]pyridine-4-carboxylic acid]	< 125 µg/mL	15 µg/mL (≈ 33.8 µM)	> 125 µg/mL	248 to 250 °C	13
Cc1c(-c2cc(C(=O)O)c3cc(Cl)ccc3n2)nnn1-c1ccc(F)cc1 [Compound 5m, 6-Chloro-2-(1-(4-fluorophenyl)-5-methyl-1H-1,2,3-triazol-4-yl)benzo [b]pyridine-4-carboxylic acid]	< 125 µg/mL	62.5 µg/mL (≈ 163 µM)	> 125 µg/mL	298 to 299 °C	–
Cc1c(-c2cc(C(=O)O)c3cc(Br)ccc3n2)nnn1-c1cccc(Br)c1 [Compound 5t, 6-Bromo-2-(1-(3-bromophenyl)-5-methyl-1H-1,2,3-triazol-4-yl)benzo [b]pyridine-4-carboxylic acid]	< 125 µg/mL	15 µg/mL (≈ 30.7 µM)	> 125 µg/mL	299 to 300 °C	13
Cc1c(-c2cc(C(=O)O)c3ccccc3n2)nnn1-c1ccc([N+](=O)[O-])cc1 [Compound 5h, 2-(5-Methyl-1-(4-nitrophenyl)-1H-1,2,3-triazol-4-yl)benzo [b]pyridine-4-carboxylic acid]	< 125 µg/mL	125 µg/mL (≈ 333 µM)	> 125 µg/mL	265 to 267 °C	–
COc1ccc(-n2nnc(-c3cc(C(=O)O)c4cc(Cl)ccc4n3)c2C)cc1 [Compound 5j, 6-Chloro-2-(1-(4-methoxyphenyl)-5-methyl-1H-1,2,3-triazol-4-yl)benzo [b]pyridine-4-carboxylic acid]	< 125 µg/mL	15 µg/mL (≈ 38 µM)	> 125 µg/mL	287 to 289 °C	10
Cc1c(-c2cc(C(=O)O)c3ccccc3n2)nnn1-c1cccc(Br)c1 [Compound 5d, 2-(1-(3-Bromophenyl)-5-methyl-1H-1,2,3-triazol-4-yl)benzo [b]pyridine-4-carboxylic acid]	< 125 µg/mL	62.5 µg/mL (≈ 153 µM)	> 125 µg/mL	248 to 250 °C	–
Cc1c(-c2cc(C(=O)O)c3ccccc3n2)nnn1-c1cccc(Cl)c1 [Compound 5c, 2-(1-(3-Chlorophenyl)-5-methyl-1H-1,2,3-triazol-4-yl)benzo [b]pyridine-4-carboxylic acid]	< 125 µg/mL	62.5 µg/mL (≈ 171 µM)	> 125 µg/mL	276 to 277 °C	–
Cc1c(-c2cc(C(=O)O)c3cc(Br)ccc3n2)nnn1-c1ccc([N+](=O)[O-])cc1 [Compound 5x, 6-Bromo-2-(5-methyl-1-(4-nitrophenyl)-1H-1,2,3-triazol-4-yl)benzo [b]pyridine-4-carboxylic acid]	< 125 µg/mL	125 µg/mL (≈ 275 µM)	> 125 µg/mL	236 to 238 °C	–
Cc1c(-c2cc(C(=O)O)c3cc(Br)ccc3n2)nnn1-c1ccccc1 [Compound 5q, 6-Bromo-2-(5-methyl-1-phenyl-1H-1,2,3-triazol-4-yl)benzo [b]pyridine-4-carboxylic acid]	< 125 µg/mL	15 µg/mL (≈ 36.7 µM)	> 125 µg/mL	> 300 °C	–
Cc1c(-c2cc(C(=O)O)c3cc(Cl)ccc3n2)nnn1-c1ccc([N+](=O)[O-])cc1 [Compound 5p, 6-Chloro-2-(5-methyl-1-(4-nitrophenyl)-1H-1,2,3-triazol-4-yl)benzo [b]pyridine-4-carboxylic acid]	< 125 µg/mL	62.5 µg/mL (≈ 153 µM)	> 125 µg/mL	235 to 237 °C	–
Cc1c(-c2cc(C(=O)O)c3cc(Br)ccc3n2)nnn1-c1ccc(Cl)cc1 [Compound 5v, 6-Bromo-2-(1-(4-chlorophenyl)-5-methyl-1H-1,2,3-triazol-4-yl)benzo [b]pyridine-4-carboxylic acid]	< 125 µg/mL	15 µg/mL (≈ 33.8 µM)	> 125 µg/mL	> 300 °C	13
Cc1c(-c2cc(C(=O)O)c3cc(Br)ccc3n2)nnn1-c1cccc(Cl)c1 [Compound 5s, 6-Bromo-2-(1-(3-chlorophenyl)-5-methyl-1H-1,2,3-triazol-4-yl)benzo [b]pyridine-4-carboxylic acid]	< 125 µg/mL	15 µg/mL (≈ 33.8 µM)	> 125 µg/mL	> 300 °C	13
Cc1c(-c2cc(C(=O)O)c3cc(Cl)ccc3n2)nnn1-c1cccc(Cl)c1 [Compound 5k, 6-Chloro-2-(1-(3-chlorophenyl)-5-methyl-1H-1,2,3-triazol-4-yl)benzo [b]pyridine-4-carboxylic acid]	< 125 µg/mL	15 µg/mL (≈ 37.6 µM)	> 125 µg/mL	> 300 °C	13
Cc1c(-c2cc(C(=O)O)c3ccccc3n2)nnn1-c1ccccc1 [Compound 5a, 2-(5-Methyl-1-phenyl-1H-1,2,3-triazol-4-yl)benzo [b]pyridine-4-carboxylic acid]	< 125 µg/mL	125 µg/mL (≈ 378 µM)	> 125 µg/mL	278 to 280 °C	–
COc1ccc(-n2nnc(-c3cc(C(=O)O)c4cc(Br)ccc4n3)c2C)cc1 [Compound 5r, 6-Bromo-2-(1-(4-methoxyphenyl)-5-methyl-1H-1,2,3-triazol-4-yl)benzo [b]pyridine-4-carboxylic acid]	< 125 µg/mL	15 µg/mL (≈ 34.1 µM)	> 125 µg/mL	294 to 295 °C	5
Cc1c(-c2cc(C(=O)O)c3cc(Br)ccc3n2)nnn1-c1ccc(Br)cc1 [Compound 5w, 6-Bromo-2-(1-(4-bromophenyl)-5-methyl-1H-1,2,3-triazol-4-yl)benzo [b]pyridine-4-carboxylic acid]	< 125 µg/mL	15 µg/mL (≈ 30.7 µM)	> 125 µg/mL	> 300 °C	10
Cc1c(-c2cc(C(=O)O)c3cc(Br)ccc3n2)nnn1-c1ccc(F)cc1 [Compound 5u, 6-Bromo-2-(1-(4-fluorophenyl)-5-methyl-1H-1,2,3-triazol-4-yl)benzo [b]pyridine-4-carboxylic acid]	< 125 µg/mL	62.5 µg/mL (≈ 146 µM)	> 125 µg/mL	> 300 °C	–
COc1ccc(-n2nnc(-c3cc(C(=O)O)c4ccccc4n3)c2C)cc1 [Compound 5b, 2-(1-(4-Methoxyphenyl)-5-methyl-1H-1,2,3-triazol-4-yl)benzo[b]pyridine-4-carboxylic acid]	< 125 µg/mL	62.5 µg/mL (≈ 173 µM)	> 125 µg/mL	222 to 224 °C	–
Cc1c(-c2cc(C(=O)O)c3ccccc3n2)nnn1-c1ccc(F)cc1 [Compound 5e, 2-(1-(4-Fluorophenyl)-5-methyl-1H-1,2,3-triazol-4-yl)benzo [b]pyridine-4-carboxylic acid]	< 125 µg/mL	125 µg/mL (≈ 359 µM)	> 125 µg/mL	290 to 291 °C	–
